Measured values: PubChem BioAssay AID248 (DTP/NCI, 2004)
Several values for one entry are separate records, joined by “and”; a condition that tells them apart may be missing. Equal values may be shown once. Toxic doses and inconclusive results are not listed. No stated cut-off is given here; in the data, active means T/C of 150% or more; inactive means T/C below 125%.

Test system: L1210 leukemia ip in BDF1 mice, survival T/C
Assay: NCI In Vivo Anticancer Drug Screen. Data for tumor model L1210 Leukemia (intraperitoneal) in B6D2F1 (BDF1) mice
Details: endpoint: mean survival time, higher = longer survival
Method in brief: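 Mice bearing the transplanted tumor received compound or vehicle. Survival of the treated group was divided by that of the vehicle-treated control group to give the ratio.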

[1] = dose: 50.0 mg/kg/injection, schedule: Q01DX009 (ip), vehicle: Klucel (hydroxypropylcellulose) (HPC)
[2] = dose: 100.0 mg/kg/injection, schedule: Q01DX009 (ip), vehicle: Klucel (hydroxypropylcellulose) (HPC)
[3] = dose: 100.0 mg/kg/injection, schedule: Q04DX003 (ip), vehicle: Klucel (hydroxypropylcellulose) (HPC)
[4] = dose: 200.0 mg/kg/injection, schedule: Q01DX009 (ip), vehicle: Klucel (hydroxypropylcellulose) (HPC)

Measured: T/C

CC1(O)C(c2ccccc2)=Nc2ccccc21 (centres undefined)
inactive: dose: 100.0 mg/kg/injection, schedule: Q04DX002 (ip), vehicle: saline with Tween-80 95 % of control | dose: 200.0 mg/kg/injection, schedule: Q04DX002 (ip), vehicle: saline with Tween-80 113 % of control | dose: 400.0 mg/kg/injection, schedule: Q04DX002 (ip), vehicle: saline with Tween-80 92 % of control

CC(=O)NN(N=O)C(C)c1ccccc1 (centres undefined)
inactive: dose: 100.0 mg/kg/injection, schedule: Q04DX002 (ip), vehicle: Klucel (hydroxypropylcellulose) (HPC) 108 % of control | dose: 200.0 mg/kg/injection, schedule: Q04DX002 (ip), vehicle: Klucel (hydroxypropylcellulose) (HPC) 105 % of control

CCOC(=O)CNC(=O)C(CSSCC(NC(=O)OCc1ccccc1)C(=O)NCC(=O)OCC)NC(=O)OCc1ccccc1 (centres undefined)
inactive: dose: 25.0 mg/kg/injection, schedule: Q04DX003 (ip), vehicle: Klucel (hydroxypropylcellulose) (HPC) 95 % of control | [1] 100 % of control | dose: 50.0 mg/kg/injection, schedule: Q04DX003 (ip), vehicle: Klucel (hydroxypropylcellulose) (HPC) 104 % of control | [2] 103 % of control | [3] 104 % of control and 90 % of control | [4] 92 % of control

CC(=O)C1C=NCCN=CC(C(C)=O)C(C)=NCCCN=C1C.[Ni] (centres undefined)
inactive: [1] 101 % of control | [2] 105 % of control | [3] 100 % of control | [4] 103 % of control | dose: 200.0 mg/kg/injection, schedule: Q04DX003 (ip), vehicle: Klucel (hydroxypropylcellulose) (HPC) 95 % of control | dose: 400.0 mg/kg/injection, schedule: Q04DX003 (ip), vehicle: Klucel (hydroxypropylcellulose) (HPC) 106 % of control

NC(=O)SCC(=O)Nc1ccc2ncccc2c1
inactive: dose: 50.0 mg/kg/injection, schedule: Q01DX001 (ip), vehicle: carboxymethylcellulose (CMC) 97 % of control | dose: 88.0 mg/kg/injection, schedule: Q01DX001 (ip), vehicle: carboxymethylcellulose (CMC) 95 % of control and 112 % of control | dose: 100.0 mg/kg/injection, schedule: Q01DX001 (ip), vehicle: carboxymethylcellulose (CMC) 94 % of control | dose: 100.0 mg/kg/injection, schedule: Q01DX009 (ip), vehicle: saline sonified 98 % of control | dose: 100.0 mg/kg/injection, schedule: Q04DX003 (ip), vehicle: saline 93 % of control | dose: 134.0 mg/kg/injection, schedule: Q01DX001 (ip), vehicle: carboxymethylcellulose (CMC) 95 % of control and 105 % of control | dose: 200.0 mg/kg/injection, schedule: Q01DX009 (ip), vehicle: saline sonified 90 % of control | dose: 200.0 mg/kg/injection, schedule: Q04DX003 (ip), vehicle: saline 109 % of control | dose: 300.0 mg/kg/injection, schedule: Q01DX001 (ip), vehicle: carboxymethylcellulose (CMC) 100 % of control and 87 % of control | dose: 400.0 mg/kg/injection, schedule: Q01DX001 (ip), vehicle: carboxymethylcellulose (CMC) 100 % of control | dose: 400.0 mg/kg/injection, schedule: Q01DX009 (ip), vehicle: saline sonified 101 % of control | dose: 400.0 mg/kg/injection, schedule: Q04DX003 (ip), vehicle: saline 96 % of control
